Earlier results on three compounds are cited in patent publication US20040191926A1 (priority 2001, published 2004).

Substitutions are numbered along the chain they refer to. Read-outs that look alike come from different tables or passages of the source. Where no end group is shown, it is not given here. [ ]: non-standard residue; d: D form. F2Pmp = N[C@@H](Cc1ccc(C(F)(F)P(=O)(O)O)cc1)C(=O)O

For data set [1], the target named is T1, PTP1B (Homo sapiens, UniProt P18031).
T1 sequence (P18031 1-435): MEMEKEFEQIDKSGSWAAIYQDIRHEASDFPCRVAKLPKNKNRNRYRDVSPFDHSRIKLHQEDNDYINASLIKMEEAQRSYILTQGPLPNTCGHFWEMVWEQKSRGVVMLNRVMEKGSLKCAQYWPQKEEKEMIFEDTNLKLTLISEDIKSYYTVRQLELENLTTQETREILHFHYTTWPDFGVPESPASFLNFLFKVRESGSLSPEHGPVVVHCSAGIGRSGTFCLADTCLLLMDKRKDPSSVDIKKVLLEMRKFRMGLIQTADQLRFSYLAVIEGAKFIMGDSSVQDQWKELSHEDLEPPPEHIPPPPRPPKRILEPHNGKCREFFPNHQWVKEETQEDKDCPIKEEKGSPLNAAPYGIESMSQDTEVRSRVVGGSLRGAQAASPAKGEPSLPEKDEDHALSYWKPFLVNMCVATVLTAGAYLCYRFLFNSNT
The note with it: as PTP1B substrate (ref. 31); cited from earlier work.

Data set [2] deals with T2, PTP1B/C215S (Homo sapiens, UniProt P18031, C215S).
T2 sequence (P18031 1-435 C215S): T1 sequence (P18031 1-435) with C215S
The note with it: isothermal titration calorimetry, pH 7.0 and 25° C.; cited from earlier work.

Data set [3] deals with T1, PTP1B. To be noted: isothermal titration calorimetry, ionic strength of 0.15 M (ref. 33); cited from earlier work. (ITC needs no label: the signal is the heat of the interaction.)
The target of data set [4] is T1, PTP1B. The note with it: cited from earlier work.

Consider `O=P(O)(O)Oc1ccc(Cc2ccc(OP(=O)(O)O)cc2)cc1`, for which, in data set [1], the Km (usually the concentration of substrate that gives half-maximal velocity) is 16 µM and the kcat (in general, the maximal rate divided by the concentration of active sites) is 6.9 s⁻¹.
As to “Ac-DADEpYL-NH2 [pTyr-containing hexapeptide PTP1B substrate]”, the Kd (in general, the concentration at which binding is half-saturated) in data set [2] is 800 ± 100 nM.
Take DADE[F2Pmp]L-NH2: the Kd in data set [3] was 240 nM. For the same compound, the Ki (as a rule, a dissociation constant, usually derived from enzyme kinetics or from competition with a known ligand) was 200 nM in data set [4]; 250 nM in data set [4] (enzyme inhibition, ionic strength of 0.15 M (ref. 33)); 26 nM in data set [4] (low ionic strength: pH 7.3 in 50 mM Hepes, 5 mM DTT and 10 mg/mL BSA buffer (ref. 37)). Moreover, the “potency relative to the same peptide containing phosphonomethyl phenylalanine (Pmp)” value in data set [4] is on record as “over 1000 times”. For the same compound, the IC50 – broadly, the concentration that inhibits the measured activity by half – in data set [4] (low ionic strength: pH 6.3, 50 mM Bis-Tris, 2 mM EDTA, 5 mM DTT buffer (ref. 38)) is 30 nM.
